The values below come from patent US7745576B2, “Polypeptides having antimicrobial activity and polynucleotides encoding same” (Novozymes Adenium Biotech A/S, priority 2005, dated 2010).

Holding throughout (assay type): cell-based
For experiment [1], the system named is Acinetobacter iwoffii ATCC 15309. The experiment can be described thus: MIC, NCCLS/CLSI M7-A6 dilution susceptibility test. Particulars: average of two independent evaluations. On the procedure:
(§1) The antimicrobial peptide shown as amino acids 1 to 21 of SEQ ID NO: 2 was prepared synthetically. The Minimal Inhibitory Concentration (MIC) was determined to test for the antimicrobial activity of Arenicin following the NCCLS guidelines from CLSI (Clinical and Laboratory Standards Institute; formerly known as National Committee for Clinical and Laboratory Standards)—protocol M7-A6, Vol. 20, No. 2: Methods for Dilution Antimicrobial Susceptibility Tests for Bacteria That Grow Aerobically.
(§2) The antimicrobial peptide of the invention was tested against 12 bacterial strains obtained from the American Type Culture Collection (ATCC). The results in Table 1 are average values of two independent evaluations.

Experiment [2] has as its system Aeromonas salmonicida ATCC 14174. Put plainly: MIC, NCCLS/CLSI M7-A6 dilution susceptibility test. The following applies: average of two independent evaluations. On the procedure:
as §1, §2

Experiment [3] has as its system Citrobacter freundii ATCC 8090. Put plainly: MIC, NCCLS/CLSI M7-A6 dilution susceptibility test. Particulars: average of two independent evaluations. How it is done:
as §1, §2

Experiment [4] relates to Enterobacter aerogenes ATCC 13048. The experiment can be described thus: MIC, NCCLS/CLSI M7-A6 dilution susceptibility test. The following applies: average of two independent evaluations. On the procedure:
as §1, §2

The test system of experiment [5] is Enterobacter cloacae ATCC 13047. The experiment can be described thus: MIC, NCCLS/CLSI M7-A6 dilution susceptibility test. The following applies: average of two independent evaluations. On the procedure:
as §1, §2

The subject of experiment [6] is Escherichia coli ATCC 25404. The experiment can be described thus: MIC, NCCLS/CLSI M7-A6 dilution susceptibility test. The following applies: average of two independent evaluations. How it is done:
as §1, §2

For experiment [7], the system named is Escherichia coli ATCC 25922. The experiment can be described thus: MIC, NCCLS/CLSI M7-A6 dilution susceptibility test. Particulars: average of two independent evaluations. On the procedure:
as §1, §2

Experiment [8] relates to Moraxella catarrhalis ATCC 25238. The experiment can be described thus: MIC, NCCLS/CLSI M7-A6 dilution susceptibility test. Particulars: average of two independent evaluations. How it is done:
as §1, §2

The subject of experiment [9] is Pseudomonas aeruginosa ATCC 27853. Put plainly: MIC, NCCLS/CLSI M7-A6 dilution susceptibility test. Particulars: average of two independent evaluations. How it is done: as §1, §2
Experiment [10] deals with Pseudomonas aeruginosa ATCC 9027. Put plainly: MIC, NCCLS/CLSI M7-A6 dilution susceptibility test. The following applies: average of two independent evaluations. How it is done:
as §1, §2

The test system of experiment [11] is Shigella sonnei ATCC 11060. The experiment can be described thus: MIC, NCCLS/CLSI M7-A6 dilution susceptibility test. Particulars: average of two independent evaluations. How it is done: as §1, §2
Experiment [12] relates to Stenotrophomonas maltophlila ATCC 13637. Put plainly: MIC, NCCLS/CLSI M7-A6 dilution susceptibility test. Particulars: average of two independent evaluations. On the procedure: as §1, §2
Experiment [13] deals with Aspergillus niger ATCC9642. Put plainly: MIC against clinical fungi, PD broth dilution. The following applies: 30° C., approximately 40 hours. How it is done:
(§3) Minimal inhibitory concentrations of Arenicin against yeasts and fungi were determined essentially as described by NCCLS/CLSI (clinical and laboratory standards institute).
(§4) In summary, fungal or yeasts suspension of approximately 1 McFarland unit was diluted 1:100 in PD broth (8 g/L potato dextrose) and growth was assayed against serial 2-fold dilutions of Arenicin (0.03-32 micrograms/mL). Assay plates were incubated at 25-27° C. for Candida albicans, Candida tropicalis, Cryptococcus neoformans, Trichophyton mentagrophytes and Epidermophyton floccosum, and at 30° C. for Candida glabrata, Pichia pastoris, Saccharomyces cerevisiae and Aspergillus niger. Growth was recorded visually (naked eye, oblique illumination) after approximately 40 hours of incubation.

The subject of experiment [14] is Candida albicans ATCC 10231. Put plainly: MIC against clinical fungi, PD broth dilution. Particulars: 25-27° C., approximately 40 hours. How it is done: as §3, §4
The test system of experiment [15] is Candida albicans ATCC 18804. Put plainly: MIC against clinical fungi, PD broth dilution. Particulars: 25-27° C., approximately 40 hours. On the procedure:
as §3, §4
In general terms: In broth dilution the organism is exposed to a series of concentrations in liquid medium.

Experiment [16] relates to Candida albicans ATCC 28517. The experiment can be described thus: MIC against clinical fungi, PD broth dilution. The following applies: 25-27° C., approximately 40 hours. How it is done: as §3, §4
For experiment [17], the system named is Candida glabrata DSM 11226. The experiment can be described thus: MIC against clinical fungi, PD broth dilution. The following applies: 30° C., approximately 40 hours. On the procedure: as §3, §4
The test system of experiment [18] is Candida tropicalis DSM 11953. The experiment can be described thus: MIC against clinical fungi, PD broth dilution. The following applies: 25-27° C., approximately 40 hours. How it is done:
as §3, §4

Experiment [19] concerns Cryptococcus neoformans DSM 11959. Put plainly: MIC against clinical fungi, PD broth dilution. Particulars: 25-27° C., approximately 40 hours. How it is done: as §3, §4
For experiment [20], the system named is Pichia pastoris ATCC 201178. Put plainly: MIC against clinical fungi, PD broth dilution. Particulars: 30° C., approximately 40 hours. How it is done: as §3, §4
In experiment [21] the test system is Pichia pastoris ATCC 20864. The experiment can be described thus: MIC against clinical fungi, PD broth dilution. The following applies: 30° C., approximately 40 hours. On the procedure:
as §3, §4

In experiment [22] the test system is Saccharomyces cerevisiae DSM 1333. The experiment can be described thus: MIC against clinical fungi, PD broth dilution. Particulars: 30° C., approximately 40 hours. How it is done: as §3, §4
Experiment [23] has as its system Trichophyton mentagrophytes DSM 4870. The experiment can be described thus: MIC against clinical fungi, PD broth dilution. The following applies: 25-27° C., approximately 40 hours. On the procedure: as §3, §4

For the substance “Arenicin: antimicrobial polypeptide shown as amino acids 1 to 21 of SEQ ID NO: 2 (Arenicola marina), prepared synthetically (MGYSMNIALVYATVLIGVLHV; listed as Arenicola marina)”, the MIC in experiment [1] is given as 0.25 microgram/mL; in [2] it was 2 micrograms/mL; in experiment [3] it was 1 microgram/mL; in experiment [4], 1 microgram/mL; in [5], 1 microgram/mL; in experiment [6], 0.5 microgram/mL. In addition, the MIC is given as 0.25 microgram/mL in experiment [7]; less than 0.06 microgram/mL in experiment [8]; 0.5 microgram/mL in experiment [9]; 1 microgram/mL in experiment [10]; 0.5 microgram/mL in experiment [11]; 1 microgram/mL in experiment [12]. For the same substance, the MIC in experiment [13] amounted to 8 micrograms/mL; in experiment [14], 4 micrograms/mL; in experiment [15], 8 micrograms/mL; in experiment [16] it was 8 micrograms/mL; in experiment [17] it was 16 micrograms/mL; in experiment [18], 2 micrograms/mL. Moreover, the MIC in experiment [19] is on record as 1 microgram/mL; in experiment [20] it was 4 micrograms/mL; in experiment [21] it was 2 micrograms/mL; in experiment [22] it was 8 micrograms/mL; in experiment [23], 8 micrograms/mL.
